Experimental data reported in paper PMC13110849 (ACS chemical neuroscience, 2023).

Target: RhoA•GMPPNP binding to ROCK1 (Homo sapiens, UniProt P61586)
Test: AlphaScreen assay of RhoA•GMPPNP binding to ROCK1
Details: varying concentration, 24 h, 4 °C

Sequence of RhoA•GMPPNP binding to ROCK1 (P61586 whole entry): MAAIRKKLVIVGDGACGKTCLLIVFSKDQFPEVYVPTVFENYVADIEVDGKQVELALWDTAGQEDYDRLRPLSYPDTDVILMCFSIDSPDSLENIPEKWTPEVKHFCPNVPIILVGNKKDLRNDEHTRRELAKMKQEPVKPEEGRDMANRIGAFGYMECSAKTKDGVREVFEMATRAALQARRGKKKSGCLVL

Inhibition of RhoA•GMPPNP binding to ROCK1: successfully inhibited
SMILES: Nc1nc2c(ncn2[C@@H]2O[C@H](COP(=O)(O)OP(=O)(O)O)[C@@H](O)[C@H]2O)c(=O)[nH]1 [GDP]
